target: T1, CCR1 (Homo sapiens, UniProt P32246); assay: Method B: calcium flux in CCR1 transfected cells (Calcium 4 dye, […] FDSS6000), block of the CCR1/MIP-1α interaction; type: cell-based; conditions: Method B: Calcium 4 dye, MIP-1alpha at EC80
T1 sequence (P32246 1-355): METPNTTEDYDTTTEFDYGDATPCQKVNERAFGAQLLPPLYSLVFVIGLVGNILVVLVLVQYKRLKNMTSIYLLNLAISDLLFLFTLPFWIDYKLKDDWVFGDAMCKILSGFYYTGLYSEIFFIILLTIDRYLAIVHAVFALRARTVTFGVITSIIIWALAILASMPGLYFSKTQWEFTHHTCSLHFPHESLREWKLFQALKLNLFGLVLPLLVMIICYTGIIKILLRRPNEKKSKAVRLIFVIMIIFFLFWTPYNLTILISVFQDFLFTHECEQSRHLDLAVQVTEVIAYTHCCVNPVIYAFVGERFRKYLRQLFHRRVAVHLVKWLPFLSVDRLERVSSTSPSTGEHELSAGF
Procedure: Compounds are assessed for the ability to block the interaction of CCR1 and MIP-1α in a functional cellular assay measuring calcium flux in CCR1 transfected cells.
Method B: Non-adherent cells purchased from Chemicon Corporation (HTS005C), stably expressing recombinant CCR1 and G-alpha-16 are grown in RPMI 1640 medium (Mediatech 10-080-CM) supplemented with 10% FBS, 0.4 mg/mL Geneticin and penicillin/streptomycin. On the day of the assay, the cells are loaded with Calcium 4 dye (Molecular Devices R7448) with Probenecid (Invitrogen P346400) at 8E5 cells/mL for 1 hour at room temperature. After 1 hour, they are seeded in a 384-well tissue culture-treated plate at a density of 20,000 cells/well. Appropriately diluted test compound is added to the well to achieve a top concentration of 3,000 nM (diluted 4-fold with 10 doses total). The final concentration of DMSO is 1%. The buffer is HBSS (Invitrogen 14025) with 20 mM HEPES at pH 7.4. The cells incubate 30 minutes at 37 C and then 30 minutes at room temperature. The plates are transferred to the […] FDSS6000 where MIP-1alpha in 1% BSA is added at the EC80 final concentration. All plates must be read within 4 hours of the start of dye-loading. Wells+/−MIP-1alpha containing diluted DMSO instead of compound serve as the controls. Data are analyzed using Activity Base software.

Compared with `CCC(C)(NC(=O)c1cncc2c1cnn2-c1ccc(F)cc1)c1ccnc(Br)c1` (stereo not shown) [1-(4-Fluorophenyl)-1H-pyrazolo[3,4-c]pyridine-4-carboxylic acid [1-(2-bromo-pyridin-4-yl)-1-methyl-propyl]-amide], `CCC(C)(NC(=O)c1cncc2c1cnn2-c1ccc(F)cc1)c1ccnc(S(C)(=O)=O)c1` (stereo not shown) [1-(4-Fluorophenyl)-1H-pyrazolo[3,4-c]pyridine-4-carboxylic acid [1-(2-methanesulfonyl-pyridin-4-yl)-1-methyl-propyl]-amide] is 1.8-fold lower in IC50: 11 nM for the first, 6 nM for the second. The second is the more potent here.

Compared with `CCC(NC(=O)c1cncc2c1cnn2-c1ccc(F)cc1)c1nc(C(N)=O)c(C)o1` (stereo not shown) [1-(4-Fluorophenyl)-1H-pyrazolo[3,4-c]pyridine-4-carboxylic acid [1-(4-carbamoyl-5-methyl-oxazol-2-yl)-propyl]-amide], `CCC(NC(=O)c1cncc2c1cnn2-c1ccc(F)cc1)c1nc(C(=O)NC)c(C)o1` (stereo not shown) [1-(4-Fluorophenyl)-1H-pyrazolo[3,4-c]pyridine-4-carboxylic acid [1-(5-methyl-4-methylcarbamoyl-oxazol-2-yl)-propyl]-amide] is 2.9-fold lower in IC50: 26 nM for the first, 9 nM for the second.

First: CCC(NC(=O)c1cncc2c1cnn2-c1ccc(F)cc1)c1nc(C(N)=O)co1 (stereo not shown) [1-(4-Fluorophenyl)-1H-pyrazolo[3,4-c]pyridine-4-carboxylic acid [1-(4-carbamoyl-oxazol-2-yl)-propyl]-amide]
Second: CCC(NC(=O)c1cncc2c1cnn2-c1ccc(F)cc1)c1nc(C(=O)NC)co1 (stereo not shown) [1-(4-Fluorophenyl)-1H-pyrazolo[3,4-c]pyridine-4-carboxylic acid [1-(4-methylcarbamoyl-oxazol-2-yl)-propyl]-amide]
The IC50 of the first is 2.2-fold higher: 36 nM for the first, 16 nM for the second.

First: CCC(NC(=O)c1cncc2c1cnn2-c1ccc(F)cc1)c1ccc(S(C)(=O)=O)[n+]([O-])c1 (stereo not shown) [1-(4-Fluorophenyl)-1H-pyrazolo[3,4-c]pyridine-4-carboxylic acid [1-(6-methanesulfonyl-1-oxy-pyridin-3-yl)-propyl]-amide]
Second: CCC(CC)(NC(=O)c1cncc2c1cnn2-c1ccc(F)cc1)c1ccnc(S(C)(=O)=O)c1 [1-(4-Fluorophenyl)-1H-pyrazolo[3,4-c]pyridine-4-carboxylic acid [1-ethyl-1-(2-methanesulfonyl-pyridin-4-yl)-propyl]-amide]
The IC50 of the first is 1.8-fold lower: 9 nM for the first, 16 nM for the second. The first is the more potent here.

Going from `CCC(CC)(NC(=O)c1cncc2c1cnn2-c1ccc(F)cc1)c1cnc(S(C)(=O)=O)s1` [1-(4-Fluorophenyl)-1H-pyrazolo[3,4-c]pyridine-4-carboxylic acid [1-ethyl-1-(2-methanesulfonyl-thiazol-5-yl)-propyl]-amide] to `CC(C)(O)CNc1cc(CNC(=O)c2cncc3c2cnn3-c2ccc(F)cc2)cc(S(C)(=O)=O)n1` [1-(4-Fluorophenyl)-1H-pyrazolo[3,4-c]pyridine-4-carboxylic acid [2-(2-hydroxy-2-methyl-propylamino)-6-methanesulfonyl-pyridin-4-ylmethyl]-amide], the IC50 falls from 28 nM to 0.7 nM (40-fold).

Compared with `CC(=O)N(C)c1ncc(CNC(=O)c2cncc3c2cnn3-c2ccc(F)cc2)cn1` [1-(4-Fluorophenyl)-1H-pyrazolo[3,4-c]pyridine-4-carboxylic acid [2-(acetyl-methyl-amino)-pyrimidin-5-ylmethyl]-amide], `CN(CC(N)=O)c1cc(CNC(=O)c2cncc3c2cnn3-c2ccc(F)cc2)cc(S(C)(=O)=O)n1` [1-(4-Fluorophenyl)-1H-pyrazolo[3,4-c]pyridine-4-carboxylic acid [2-(carbamoylmethyl-methyl-amino)-6-methanesulfonyl-pyridin-4-ylmethyl]-amide] is 8-fold lower in IC50: 24 nM for the first, 3 nM for the second. The second is the more potent here.

For `CS(=O)(=O)c1cc(CNC(=O)c2cncc3c2cnn3-c2ccc(F)cc2)cc(NCC(N)=O)n1` [1-(4-Fluorophenyl)-1H-pyrazolo[3,4-c]pyridine-4-carboxylic acid [2-(carbamoylmethyl-amino)-6-methanesulfonyl-pyridin-4-ylmethyl]-amide], the IC50 was 11 nM.

Source: patent publication US8063065B2, “Azaindazole compounds as CCR1 receptor antagonists” (Boehringer Ingelheim International GmbH, priority 2008, dated 2011)
